The record followed here is ChEMBL document CHEMBL1201862, “PubChem BioAssay data set” (2004).

Each structure is given as a SMILES string.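 Five concentrations, 48 hours, 96-well plates. GI50 = concentration required for 50% inhibition of growth.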 Active and inactive are the calls of the source. Cut-off read from the data, not from the text of the source: active = GI50 up to about 1.1 µM and inactive = higher. A value given as a limit tells only on which side of the number the result lay.

Among the test systems are OVCAR-4; TK-10; A549; SNB-19; HT-29; UACC-257; SK-MEL-2; EKVX; 786-0; SW-620; NCI-H23; HOP-92; SNB-75; MOLT-4; OVCAR-8; OVCAR-3; RPMI-8226.
What all share (assay): DTP human tumour cell line panel, 48 h

In general, GI50 refers to the concentration at which growth is held to half of that of the control. `N=C(N)NNC(=O)CCCCCCCC(=O)NNC(=N)N`: the GI50 with OVCAR-4 is 33.9 µM (inactive); in the assay with TK-10 it was > 100 µM (inactive); in the assay on A549 it was > 100 µM (inactive); with SNB-19, > 100 µM (inactive); in the assay with HT-29, > 100 µM (inactive); in the assay with UACC-257, > 100 µM (inactive). In addition, the GI50 is > 100 µM (inactive) in the assay on SK-MEL-2; > 100 µM (inactive) in the assay with EKVX; > 100 µM (inactive) with 786-0; 10.4 µM (inactive) with SW-620; > 100 µM (inactive) in the assay with NCI-H23.

Take `CCCc1c2c([nH]c(=O)c1C)C(=O)c1[nH]c(=O)c(C)c(CCC)c1C2=O`: the GI50 was 41 µM (inactive) in the assay with HOP-92; 12.2 µM (inactive) with OVCAR-4; 73.8 µM (inactive) with TK-10; 22.6 µM (inactive) in the assay with SNB-75; 23.7 µM (inactive) with A549; 18.7 µM (inactive) in the assay on SNB-19. For the same compound, the GI50 in the assay on MOLT-4 was 3.93 µM (inactive); in the assay on HT-29, 4.75 µM (inactive); with UACC-257, 2.84 µM (inactive); in the assay with OVCAR-8, 4.47 µM (inactive); in the assay with OVCAR-3 it was 1.46 µM (inactive); in the assay with 786-0, 25.1 µM (inactive). In addition, the GI50 in the assay on SW-620 is 4.78 µM (inactive); with NCI-H23 it was 23.2 µM (inactive).

Turning to `COc1ccc2c(c1)CC1NC2Cc2ccccc21` (stereo not drawn), the GI50 with OVCAR-4, with TK-10, with SNB-75, with A549, in the assay with MOLT-4 and with RPMI-8226 was > 100 µM (inactive) in each case. Moreover, the GI50 with HT-29, in the assay with UACC-257, with OVCAR-8, with OVCAR-3, in the assay with SK-MEL-2 and with EKVX was > 100 µM (inactive) throughout. Also, the GI50 with 786-0, in the assay with SW-620 and with NCI-H23 was > 100 µM (inactive) each time.

Turning to `N=C(N)N/N=C/c1c[nH]c2ccccc12`, the GI50 in the assay with OVCAR-4, in the assay on TK-10, in the assay on SNB-75, in the assay on A549, in the assay on SNB-19 and in the assay on MOLT-4 was > 100 µM (inactive) in each case. Besides, the GI50 with RPMI-8226, in the assay on HT-29, in the assay on UACC-257, in the assay with OVCAR-8, with OVCAR-3 and in the assay on SK-MEL-2 was > 100 µM (inactive) in each case. Also, the GI50 in the assay on EKVX, in the assay on 786-0, with SW-620 and in the assay on NCI-H23 was > 100 µM (inactive) each time.

As for `Cc1ccc([S+](c2ccccc2)c2cc(C)ccc2C)cc1` (stereo not drawn), the GI50 in the assay with OVCAR-4 is 29.4 µM (inactive); in the assay with SNB-75 it was < 0.01 µM (active); in the assay with A549, 7.03 µM (inactive); in the assay with SNB-19 it was 4.38 µM (inactive); with MOLT-4, 3.65 µM (inactive); in the assay with RPMI-8226 it was 3.66 µM (inactive). Also, the GI50 in the assay on UACC-257 was 1.48 µM (inactive); in the assay with OVCAR-8, 4.59 µM (inactive); in the assay with OVCAR-3, 2.26 µM (inactive); in the assay on EKVX it was 1.17 µM (inactive); with 786-0, 35.2 µM (inactive); in the assay on SW-620, 5.64 µM (inactive).

With `Clc1ccc(C2=Nc3ccccc3SC(c3cccs3)C2)cc1` (stereo not drawn), the GI50 was 14 µM (inactive) with OVCAR-4; 17.3 µM (inactive) in the assay on TK-10; 16.9 µM (inactive) in the assay on SNB-75; 17.2 µM (inactive) in the assay with A549; 16.4 µM (inactive) in the assay with SNB-19; 20.9 µM (inactive) in the assay with MOLT-4. Also, the GI50 is 2.42 µM (inactive) in the assay with RPMI-8226; 14.3 µM (inactive) in the assay on HT-29; 15.7 µM (inactive) in the assay on UACC-257; 16.2 µM (inactive) with OVCAR-8; 11.5 µM (inactive) in the assay on OVCAR-3; 17.5 µM (inactive) in the assay on EKVX. The results for the GI50 in the assay on 786-0, in the assay with SW-620 and in the assay with NCI-H23 were 16.3 µM (inactive), 13.1 µM (inactive) and 14.1 µM (inactive), respectively.

`CO[C@H](C(=O)O[C@H]1C(=O)N2CC[C@@H]3CCC[C@H]1C32C)c1ccccc1` (stereo partly drawn): the GI50 with OVCAR-4, in the assay with A549, with SNB-19, with MOLT-4, in the assay on RPMI-8226 and in the assay on HT-29 was > 100 µM (inactive) each time. Moreover, the GI50 with UACC-257, with OVCAR-8, in the assay on OVCAR-3, with SK-MEL-2, in the assay on EKVX and in the assay with 786-0 was > 100 µM (inactive) each time. Also, the GI50 in the assay on SW-620 and in the assay on NCI-H23 was > 100 µM (inactive) in each case.

With `CCC1=CC2CN3Cn4c(c(COCc5c6n(c7ccccc57)CN5CC7C=C(CC)C5C6(C(=O)OC)C7)c5ccccc54)C(C(=O)OC)(C2)C13`, the GI50 with OVCAR-4, in the assay with TK-10, in the assay on A549, with SNB-19, in the assay with MOLT-4 and with RPMI-8226 was > 100 µM (inactive) throughout. For the same compound, the GI50 in the assay with HT-29, with UACC-257, with OVCAR-8, with OVCAR-3, in the assay on SK-MEL-2 and in the assay with EKVX was > 100 µM (inactive) each time. The GI50 in the assay on 786-0, in the assay with SW-620 and in the assay on NCI-H23 was > 100 µM (inactive) throughout.

For the compound `COc1cccc(C(=O)O)c1Cc1cccc2ccccc12`, the GI50 with OVCAR-4, in the assay on TK-10, in the assay on SNB-75, in the assay on A549, in the assay with SNB-19 and with MOLT-4 was > 100 µM (inactive) in each case. Besides, the GI50 is > 100 µM (inactive) in the assay on HT-29; > 100 µM (inactive) in the assay on UACC-257; 99.8 µM (inactive) with OVCAR-8; > 100 µM (inactive) in the assay with OVCAR-3; > 100 µM (inactive) in the assay on SK-MEL-2; > 100 µM (inactive) in the assay on EKVX. Moreover, the GI50 in the assay with 786-0, in the assay with SW-620 and with NCI-H23 was > 100 µM (inactive) in each case.

For the compound `CN(C)c1ccc(C(C=C2c3ccccc3Sc3ccccc32)=C(C#N)C#N)cc1`, the GI50 was 16 µM (inactive) in the assay with OVCAR-4; > 100 µM (inactive) in the assay on TK-10; 17.1 µM (inactive) with SNB-75; > 100 µM (inactive) in the assay on A549; 83.4 µM (inactive) in the assay on SNB-19; > 100 µM (inactive) in the assay with MOLT-4. Besides, the GI50 in the assay on RPMI-8226 was > 100 µM (inactive); in the assay with HT-29, > 100 µM (inactive); with UACC-257, > 100 µM (inactive); in the assay with OVCAR-8, 94.8 µM (inactive); in the assay with OVCAR-3, 45.7 µM (inactive); in the assay with SK-MEL-2, > 100 µM (inactive). Moreover, the GI50 in the assay with EKVX was > 100 µM (inactive); in the assay on 786-0, 92.3 µM (inactive); in the assay with SW-620, > 100 µM (inactive); in the assay on NCI-H23, > 100 µM (inactive).
